According to paper PMC3914206:

Target: T1, panel of 442 kinases (Homo sapiens, UniProt Q8IYT8)
T1 construct: purchased KINOMEscan
T1 sequence (Q8IYT8 1-1036): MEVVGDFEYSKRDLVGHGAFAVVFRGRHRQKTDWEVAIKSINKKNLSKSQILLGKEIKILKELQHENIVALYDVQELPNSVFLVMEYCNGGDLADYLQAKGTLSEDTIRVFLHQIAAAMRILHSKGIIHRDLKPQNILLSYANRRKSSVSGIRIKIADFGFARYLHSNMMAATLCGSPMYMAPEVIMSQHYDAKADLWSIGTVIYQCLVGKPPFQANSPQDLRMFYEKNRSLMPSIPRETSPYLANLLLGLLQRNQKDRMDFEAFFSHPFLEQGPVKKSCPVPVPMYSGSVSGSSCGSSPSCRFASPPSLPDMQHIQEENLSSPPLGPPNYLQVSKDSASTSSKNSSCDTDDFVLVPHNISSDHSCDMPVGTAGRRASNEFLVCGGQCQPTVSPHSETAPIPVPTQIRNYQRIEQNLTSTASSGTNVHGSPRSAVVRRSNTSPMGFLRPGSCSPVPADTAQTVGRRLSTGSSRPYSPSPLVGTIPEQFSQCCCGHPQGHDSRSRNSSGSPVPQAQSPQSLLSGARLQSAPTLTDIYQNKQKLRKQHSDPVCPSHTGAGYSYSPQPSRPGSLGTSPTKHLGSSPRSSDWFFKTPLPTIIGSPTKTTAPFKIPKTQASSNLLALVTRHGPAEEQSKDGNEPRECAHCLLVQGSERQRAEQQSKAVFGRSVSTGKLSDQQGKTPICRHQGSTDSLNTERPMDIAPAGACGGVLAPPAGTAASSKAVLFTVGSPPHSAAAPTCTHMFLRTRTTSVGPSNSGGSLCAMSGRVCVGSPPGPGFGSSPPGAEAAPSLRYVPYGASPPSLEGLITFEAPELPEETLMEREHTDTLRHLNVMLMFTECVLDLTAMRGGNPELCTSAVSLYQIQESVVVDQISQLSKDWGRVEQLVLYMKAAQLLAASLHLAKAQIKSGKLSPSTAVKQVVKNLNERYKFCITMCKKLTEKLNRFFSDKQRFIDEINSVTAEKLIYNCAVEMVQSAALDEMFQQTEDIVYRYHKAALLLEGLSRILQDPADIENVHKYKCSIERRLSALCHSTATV
Format: binding
Settings: kinase ULK2; compound concentration 10 µM
Description: We assessed the selectivity of members of this scaffold using the KINOMEscan methodology across a near comprehensive panel of 442 kinases [[18,27]].

Row | SMILES | % Ctrl, ULK2 [% Ctrl]
1 | CCOc1cc(C(=O)N2CCC(N3CCN(C)CC3)CC2)ccc1Nc1ncc2c(n1)N(C1CCCC1)c1ccccc1C(=O)N2C [Compound 26] | 98
2 | COc1cc(C(=O)N2CCC(N3CCN(C)CC3)CC2)ccc1Nc1ncc2c(n1)N(C1CCCC1)c1ccccc1C(=O)N2C [Compound 25, 11-cyclopentyl-2-((2-methoxy-4-(4-(4-methylpiperazin-1-yl)piperidine-1-carbonyl)phenyl)amino)-5-methyl-5H-benzo[e]pyrimido[5,4-b][1,4]diazepin-6(11H)-one] | 75
3 | COc1cc(C(=O)N2CCC(N3CCN(C)CC3)CC2)ccc1Nc1ncc2c(n1)N1CCc3cccc(c31)C(=O)N2C [Compound 24] | 96
4 | COc1cc(C(=O)N2CCC(N3CCN(C)CC3)CC2)ccc1Nc1ncc2c(n1)N(C)c1ccccc1C(=O)N2C [15 (LRRK2-IN-1)] | 67
